Measured values from US12049486B2, “PAC1 receptor agonists (MAXCAPs) and uses thereof” (priority 2017, dated 2024).
Where no end group is shown, it is not given here.

Test: Hepatic fat / liver cirrhosis, NASH/NAFLD by H&E staining in DIO WT mice
Assay type: in vivo
Settings: versus vehicle
From the text: We have shown that these novel MAXCAP compounds, that are PAC1 specific agonists, can potentially treat Nonalcoholic steatohepatitis (NASH), non-alcoholic […] (NAFLD) and liver fibrosis. We injected these MAXCAP compounds in DIO WT mice and measured hepatic fat in the liver (see, e.g., FIG. 5).

Q: With “Pituitary Adenylate Cyclase Activating Polypeptide (HSDGIFTDSYSRYRKQMAVKKYLAAVLGKRYKQRVKNK; ends and bridges not checked; listed as Homo sapiens) [PACAP, native peptide]” as the substance, how does the “liver cirrhosis and NASH/NAFLD” value read?
A: significant reduction in liver cirrhosis and NASH/NAFLD
